Experimental data: US20240400564A1 (Syndax Pharmaceuticals, Inc, priority 2021, published 2024)

Molecular target: hERG (Homo sapiens, UniProt Q12809)
Experiment: Patch clamp assay (hERG tail currents, whole-cell)
Experimental: The 35 mm culture dishes upon which cells were seeded at a density allowing single cells to be recorded were placed on the dish holder of the microscope and continuously perfused (at approximately 1 mL/min) with the bath solution described in section 4.6. All solutions applied to cells including the pipette solution were maintained at room temperature (19° C. to 30° C.). After formation of a Gigaohm seal between the patch electrodes and individual hERG stably transfected HEK 293 cells (pipette resistance range: 2.0 MS to 7.0 MS; seal resistance range: >1GΩ) the cell membrane across the pipette tip was ruptured to assure electrical access to the cell interior (whole-cell patch-configuration). In case the quality of the seal was poor, the process of seal formation was repeated with a different cell and a new pipette. As soon as a stable seal could be established, hERG outward tail currents were measured upon depolarization of the cell membrane to +20 mV for 2 s (activation of channels) from a holding potential of −80 mV and upon subsequent repolarization to −40 mV for 3 s. This voltage protocol (as shown below) was run at least 10 times at intervals of 10 s. If current density was judged to be too low for measurement, another cell was recorded.
During wash-in of the test item the voltage protocol indicated above was run continuously again at 10 s intervals until the steady-state level of block was reached.
The IC50 was determined by fitting the dose response curve with a 2-parameter logistic function (amax=100%).

Chain of hERG (Q12809 whole entry): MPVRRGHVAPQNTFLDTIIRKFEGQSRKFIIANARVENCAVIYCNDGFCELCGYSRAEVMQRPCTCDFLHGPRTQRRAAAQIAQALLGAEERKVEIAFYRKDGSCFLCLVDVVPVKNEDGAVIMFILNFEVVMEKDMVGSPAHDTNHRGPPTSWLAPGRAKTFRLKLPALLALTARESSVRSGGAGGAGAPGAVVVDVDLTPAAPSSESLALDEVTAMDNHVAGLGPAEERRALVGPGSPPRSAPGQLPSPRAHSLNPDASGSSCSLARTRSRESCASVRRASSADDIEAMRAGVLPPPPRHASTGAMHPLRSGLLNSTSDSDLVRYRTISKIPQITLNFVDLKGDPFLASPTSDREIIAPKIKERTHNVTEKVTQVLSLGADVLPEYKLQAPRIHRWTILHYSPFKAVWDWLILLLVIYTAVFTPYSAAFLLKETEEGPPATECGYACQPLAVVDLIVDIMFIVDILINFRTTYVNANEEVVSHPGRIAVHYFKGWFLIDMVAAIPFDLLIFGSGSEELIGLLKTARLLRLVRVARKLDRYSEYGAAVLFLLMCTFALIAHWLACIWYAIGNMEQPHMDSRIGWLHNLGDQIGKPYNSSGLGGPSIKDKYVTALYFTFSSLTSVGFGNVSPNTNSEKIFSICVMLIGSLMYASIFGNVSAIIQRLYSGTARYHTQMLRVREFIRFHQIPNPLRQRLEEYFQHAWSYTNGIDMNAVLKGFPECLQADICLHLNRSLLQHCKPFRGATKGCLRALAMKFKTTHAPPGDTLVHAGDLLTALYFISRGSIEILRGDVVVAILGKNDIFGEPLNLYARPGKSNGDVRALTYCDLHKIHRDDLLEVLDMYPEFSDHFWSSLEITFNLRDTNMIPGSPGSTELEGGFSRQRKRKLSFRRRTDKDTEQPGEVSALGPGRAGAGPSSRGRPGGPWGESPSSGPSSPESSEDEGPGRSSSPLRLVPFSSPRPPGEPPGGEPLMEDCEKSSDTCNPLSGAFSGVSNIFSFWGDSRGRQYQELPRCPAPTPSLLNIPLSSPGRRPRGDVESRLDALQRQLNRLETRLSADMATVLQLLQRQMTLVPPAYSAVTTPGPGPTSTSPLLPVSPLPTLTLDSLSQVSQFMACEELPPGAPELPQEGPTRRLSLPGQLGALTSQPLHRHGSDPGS

SMILES | hERG % Remaining (30 μM compound) | hERG % Remaining (10 μM compound) | hERG % Remaining (100 μM compound)
C[C@@H]1COC[C@@H](C)N1C(=O)c1cc(F)ccc1Oc1cncnc1N1CC2(CCN(C[C@@H]3CC[C@@H](NS(=O)(=O)NCC4CC4)CO3)CC2)C1 [Example 158, (Cyclopropylmethyl)({[(3R,6S)-6-{[2-(5-{2-[(3R,5R)-3,5-dimethylmorpholine-4-carbonyl]-4-fluorophenoxy}pyrimidin-4-yl)-2,7-diazaspiro[3.5]nonan-7-yl]methyl}oxan-3-yl]sulfamoyl})amine] | +++ (≥66%) |  | 
C[C@@H]1COC[C@H](C)N1C(=O)c1cc(F)ccc1Oc1cncnc1N1CC2(CCN(C[C@@H]3CC[C@@H](NS(=O)(=O)N4CCC4)CO3)CC2)C1 [Example 161, N-((3R,6S)-6-((2-(5-(2-((3R,5S)-3,5-Dimethylmorpholine-4-carbonyl)-4-fluorophenoxy)pyrimidin-4-yl)-2,7-diazaspiro[3.5]nonan-7-yl)methyl)tetrahydro-2H-pyran-3-yl)azetidine-1-sulfonamide] | +++ (≥66%) |  | 
CC(C)N(C(=O)c1cc(F)ccc1Oc1cncnc1N1CC2(CCN(C[C@@H]3CC[C@@H](NS(=O)(=O)C4CC4)CO3)CC2)C1)[C@@H]1CCOC1 [Example 164, 2-((4-(7-(((2S,5R)-5-(Cyclopropanesulfonamido)tetrahydro-2H-pyran-2-yl)methyl)-2,7-diazaspiro[3.5]nonan-2-yl)pyrimidin-5-yl)oxy)-5-fluoro-N-isopropyl-N-((R)-tetrahydrofuran-3-yl)benzamide] | +++ (≥66%) | +++ (≥66%) | 
CCN(CC)S(=O)(=O)N[C@@H]1CC[C@@H](CN2CCC3(CC2)CN(c2ncncc2Oc2ccc(F)cc2C(=O)N(C(C)C)[C@@H]2CCOC2)C3)OC1 [Example 165, 2-((4-(7-(((2S,5R)-5-((N,N-Diethylsulfamoyl)amino)tetrahydro-2H-pyran-2-yl)methyl)-2,7-diazaspiro[3.5]nonan-2-yl)pyrimidin-5-yl)oxy)-5-fluoro-N-isopropyl-N-((R)-tetrahydrofuran-3-yl)benzamide] | ++ (233% and ≤66%) | +++ (≥66%) | 
CC(C)N(C(=O)c1cc(F)ccc1Oc1cncnc1N1CC2(CCN(C[C@@H]3CC[C@@H](NS(=O)(=O)N(C)C)CO3)CC2)C1)[C@@H]1CCOC1 [Example 167, 2-((4-(7-(((2S,5R)-5-((N,N-Dimethylsulfamoyl)amino)tetrahydro-2H-pyran-2-yl)methyl)-2,7-diazaspiro[3.5]nonan-2-yl)pyrimidin-5-yl)oxy)-5-fluoro-N-isopropyl-N-((R)-tetrahydrofuran-3-yl)benzamide] | +++ (≥66%) |  | +++ (≥66%)
CCN(CC)S(=O)(=O)N[C@@H]1CC[C@@H](CN2CCC3(CC2)CN(c2ncncc2Oc2ccc(F)cc2C(=O)N(C(C)C)[C@H]2CCOC2)C3)OC1 [Example 175, 2-((4-(7-(((2S,5R)-5-((N,N-Diethylsulfamoyl)amino)tetrahydro-2H-pyran-2-yl)methyl)-2,7-diazaspiro[3.5]nonan-2-yl)pyrimidin-5-yl)oxy)-5-fluoro-N-isopropyl-N-((S)-tetrahydrofuran-3-yl)benzamide] | + (<33%) | ++ (233% and ≤66%) | 
CC(C)N(CC#N)C(=O)c1cc(F)ccc1Oc1cncnc1N1CC2(CCN(C[C@@H]3CC[C@@H](NS(=O)(=O)N(C)C)CO3)CC2)C1 [Example 181, N-(Cyanomethyl)-2-((4-(7-(((2S,5R)-5-((N,N-dimethylsulfamoyl)amino)tetrahydro-2H-pyran-2-yl)methyl)-2,7-diazaspiro[3.5]nonan-2-yl)pyrimidin-5-yl)oxy)-5-fluoro-N-isopropylbenzamide] | +++ (≥66%) |  | 
CC(C)N(CC#N)C(=O)c1cc(F)ccc1Oc1cncnc1N1CC2(CCN(C[C@@H]3CC[C@@H](NS(=O)(=O)N4CCC4)CO3)CC2)C1 [Example 182, 2-((4-(7-(((2S,5R)-5-(Azetidine-1-sulfonamido)tetrahydro-2H-pyran-2-yl)methyl)-2,7-diazaspiro[3.5]nonan-2-yl)pyrimidin-5-yl)oxy)-N-(cyanomethyl)-5-fluoro-N-isopropylbenzamide] | +++ (≥66%) |  | 
CC(C)N(CCC#N)C(=O)c1cc(F)ccc1Oc1cncnc1N1CC2(CCN(C[C@@H]3CC[C@@H](NS(=O)(=O)N(C)C)CO3)CC2)C1 [Example 183, N-(2-Cyanoethyl)-2-((4-(7-(((2S,5R)-5-((N,N-dimethylsulfamoyl)amino)tetrahydro-2H-pyran-2-yl)methyl)-2,7-diazaspiro[3.5]nonan-2-yl)pyrimidin-5-yl)oxy)-5-fluoro-N-isopropylbenzamide] | +++ (≥66%) |  | 
CC(C)N(CC(F)F)C(=O)c1cc(F)ccc1Oc1nncnc1N1CC2(CCN(C[C@@H]3CC[C@@H](NS(=O)(=O)N4CCC4)CO3)CC2)C1 [Example 189, 2-((5-(7-(((2S,5R)-5-(Azetidine-1-sulfonamido)tetrahydro-2H-pyran-2-yl)methyl)-2,7-diazaspiro[3.5]nonan-2-yl)-1,2,4-triazin-6-yl)oxy)-N-(2,2-difluoroethyl)-5-fluoro-N-isopropylbenzamide] | +++ (≥66%) |  | 
CC(C)N(C(=O)c1cc(F)ccc1Oc1nncnc1N1CC2(CCN(C[C@@H]3CC[C@@H](NS(=O)(=O)C4CC4)CO3)CC2)C1)C(C)C [Example 196, 2-((5-(7-(((2S,5R)-5-(Cyclopropanesulfonamido)tetrahydro-2H-pyran-2-yl)methyl)-2,7-diazaspiro[3.5]nonan-2-yl)-1,2,4-triazin-6-yl)oxy)-5-fluoro-N,N-diisopropylbenzamide] | +++ (≥66%) |  | 
CCNS(=O)(=O)N[C@@H]1CC[C@@H](CN2CCC3(CC2)CN(c2ncnnc2Oc2ccc(F)cc2C(=O)N(C(C)C)C(C)C)C3)OC1 [Example 198, 2-((5-(7-(((2S,5R)-5-((N-Ethylsulfamoyl)amino)tetrahydro-2H-pyran-2-yl)methyl)-2,7-diazaspiro[3.5]nonan-2-yl)-1,2,4-triazin-6-yl)oxy)-5-fluoro-N,N-diisopropylbenzamide] | +++ (≥66%) |  | 
CC(C)N(C(=O)c1cc(F)ccc1Oc1nncnc1N1CC2(CCN(C[C@@H]3CC[C@@H](NS(=O)(=O)N4CCC4)CO3)CC2)C1)C(C)C [Example 199, 2-((5-(7-(((2S,5R)-5-(Azetidine-1-sulfonamido)tetrahydro-2H-pyran-2-yl)methyl)-2,7-diazaspiro[3.5]nonan-2-yl)-1,2,4-triazin-6-yl)oxy)-5-fluoro-N,N-diisopropylbenzamide] | +++ (≥66%) |  | 
C[C@@H]1COC[C@@H](C)N1C(=O)c1cc(F)ccc1Oc1cncnc1N1CC2(CCN(C[C@@H]3CC[C@@H](NS(=O)(=O)N4CCC[C@@H]4C)CO3)CC2)C1 [Example 209, (S)-N-((3R,6S)-6-((2-(5-(2-((3R,5R)-3,5-Dimethylmorpholine-4-carbonyl)-4-fluorophenoxy)pyrimidin-4-yl)-2,7-diazaspiro[3.5]nonan-7-yl)methyl)tetrahydro-2H-pyran-3-yl)-2-methylpyrrolidine-1-sulfonamide] | +++ (≥66%) |  | 
CC(C)N(CC(F)F)C(=O)c1cc(F)ccc1Oc1cncnc1N1CC2(CCN(C[C@@H]3CC[C@@H](NS(=O)(=O)N(C)CCCO)CO3)CC2)C1 [Example 214, N-(2,2-difluoroethyl)-5-fluoro-2-((4-(7-(((2S,5R)-5-((N-(3-hydroxypropyl)-N-methylsulfamoyl)amino)tetrahydro-2H-pyran-2-yl)methyl)-2,7-diazaspiro[3.5]nonan-2-yl)pyrimidin-5-yl)oxy)-N-isopropylbenzamide] | +++ (≥66%) |  | 
